We go through 26 compounds from patent publication US8569302B2, “Inhibitors of flaviviridae viruses” (Gilead Sciences, Inc., priority 2009, dated 2013).

As a reminder, the inhibition is the share of the control response that was lost under treatment. A high value points to a response far below the control. In general, % inhibition refers to the change of the read-out against control, counted positive when it falls. A higher % inhibition goes with a response far below the control.

The first assay concerns human hepatoma Huh-7 cell line harboring a HCV replicon. Kind of assay: HCV replicon assay (inhibition of viral replication, luciferase readout). Conditions: Hepatitis C virus, 72 h, Huh-7 HCV replicon cells, 3 days incubation. The format is cell-based. The essentials: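 Read-outs: luciferase luminescence for replication inhibition, corrected by ITMN-191 (100% inhibition) wells, and calcein AM fluorescence for cytotoxicity. Cells were treated for 3 days at 37 °C with ten 3-fold compound dilutions in 0.44% final DMSO. Percent inhibition relative to DMSO was fitted with a Hill equation to give EC50 and CC50.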
(In general: A replicon is a self-replicating genome or part of one, used to study replication in cells.)
For the compound `C[C@H]1CC[C@H](C(=O)N(c2cc(C#CC3CC3)sc2C(=O)O)[C@H]2CC[C@H](Oc3ccccn3)CC2)CC1` [Compound 229, 5-(2-cyclopropylethynyl)-3-(4-methyl-N-(4-(pyridin-2-yloxy)cyclohexyl)cyclohexanecarboxamido)thiophene-2-carboxylic acid], testing at 2 µM gave an inhibition of 82.6%. With `C[C@@H](CCOc1ccc(O)nn1)N(c1cc(C#CC(C)(C)C)sc1C(=O)O)C(=O)[C@H]1CC[C@H](C)CC1` [Compound 63, 5-(3,3-dimethyl-but-1-ynyl)-3-[[3-(6-hydroxy-pyridazin-3-yloxy)-1-(S)-methyl-propyl]-(trans-4-methyl-cyclohexanecarbonyl)-amino]-thiophene-2-carboxylic acid], the inhibition at 2 µM turned out to be 100%.

`CN(C)Cc1ccnc(O[C@H]2CC[C@@H](N(c3cc(C#CC(C)(C)C)sc3C(=O)O)C(=O)[C@H]3CC[C@H](C)CC3)CC2)c1` [Compound 175, Sodium 3-(N-(4-(4-((dimethylamino)methyl)pyridin-2-yloxy)cyclohexyl)-4-methylcyclohexanecarboxamido)-5-(3,3-dimethylbut-1-ynyl)thiophene-2-carboxylate] came in with an inhibition at 2 µM of 100%. Compound `CC(C)(C)C#Cc1cc(N(C(=O)[C@H]2CC[C@H](C)CC2)[C@H]2CC[C@H](Oc3ccc(N4CCCC4)nn3)CC2)c(C(=O)O)s1` [Compound 159, 5-(3,3-Dimethylbut-1-ynyl)-3-(4-methyl-N-(4-(6-(pyrrolidin-1-yl)pyridazin-3-yloxy)cyclohexyl)cyclohexanecarboxamido)thiophene-2-carboxylic acid] gave an inhibition at 2 µM of 99.8%. Same read-out and setting: the same measure for `CC1CCC(C(=O)N(c2cc(C#CC(C)(C)C)sc2C(=O)O)[C@H]2CC[C@H](Oc3cc(CN4CCOCC4)ccn3)CC2)CC1` (some centres unmarked) [Compound 28, 5-(3,3-Dimethyl-but-1-ynyl)-3-{(4-methyl-cyclohexanecarbonyl)-[4-(4-morpholin-4-ylmethyl-pyridin-2-yloxy)-cyclohexyl]-amino}-thiophene-2-carboxylic acid]: 99.7%; for `CC1CCC(C(=O)N(c2cc(C#CC(C)(C)C)sc2C(=O)O)[C@H]2CC[C@H](Oc3cnccc3CN3CCC(N(C)C)C3)CC2)CC1` (some centres unmarked) [Compound 195, 3-[[-4-(3-dimethylamino-pyrrolidin-1-ylmethyl-pyridin-3-yloxy)-cyclohexyl]-(4-methyl-cyclohexanecarbonyl)-amino]-5-(3,3-dimethyl-but-1-ynyl)-thiophene-2-carboxylic acid]: 99.7%. As to `CC(C)(C)C#Cc1cc(N(C(=O)[C@H]2CC[C@H](C)CC2)[C@H]2CC[C@H](Oc3cccnc3N3CCCC3)CC2)c(C(=O)O)s1` [Compound 149, 5-(3,3-Dimethylbut-1-ynyl)-3-(4-methyl-N-(4-(2-(pyrrolidin-1-yl)pyridin-3-yloxy)cyclohexyl)cyclohexanecarboxamido)thiophene-2-carboxylic acid], at 2 µM the inhibition was 99%. For `CC1CCC(C(=O)N(c2cc(C#CC(C)(C)C)sc2C(=O)O)[C@H]2CC[C@H](Oc3cccc(CN4CCOCC4)n3)CC2)CC1` (some centres unmarked) [Compound 188, 3-[[-4-(6-morpholin-1-ylmethyl-pyridin-2-yloxy)-cyclohexyl]-(4-methyl-cyclohexanecarbonyl)-amino]-5-(3,3-Dimethyl-but-1-ynyl)-thiophene-2-carboxylic acid], the inhibition at 2 µM was found to be 100%. The compound `CC(C)(C)C#Cc1cc(N(C(=O)[C@H]2CC[C@H](C)CC2)[C@H]2C[C@H](Oc3ncccn3)C2)c(C(=O)O)s1` [Compound 23, 5-(3,3-Dimethyl-but-1-ynyl)-3-{(trans-4-methyl-cyclohexanecarbonyl)-[trans-3-(pyrimidin-2-yloxy)-cyclobutyl]-amino}-thiophene-2-carboxylic acid] came in with an inhibition at 2 µM of 99.5%. As for `C[C@@H](CCOc1cncnc1)N(c1cc(C#CC(C)(C)C)sc1C(=O)O)C(=O)[C@H]1CC[C@H](C)CC1` [Compound 143, 5-(3,3-dimethyl-but-1-ynyl)-3-{(trans-4-methyl-cyclohexanecarbonyl)-[1-(S)-methyl-3-(pyrimidin-5-yloxy)-propyl]-amino}-thiophene-2-carboxylic acid], 2 µM produced 100% inhibition. `CC1CCC(C(=O)N(c2cc(C#CC(C)(C)C)sc2C(=O)O)[C@H]2CCN(CCOc3ccccn3)C2)CC1` (some centres unmarked) [Compound 321] had an inhibition at 2 µM of 99.9%.

For the compound `Cn1nnnc1S[C@H]1CC[C@@H](N(c2cc(C#CC(C)(C)C)sc2C(=O)O)C(=O)[C@H]2CC[C@H](C)CC2)CC1` [Compound 104, 5-(3,3-Dimethylbut-1-ynyl)-3-(4-methyl-N-(4-(1-methyl-1H-tetrazol-5-ylthio)cyclohexyl)cyclohexanecarboxamido)thiophene-2-carboxylic acid], testing at 2 µM gave an inhibition of 98.7%. The compound `CC(C)(C)C#Cc1cc(N(C(=O)[C@H]2CC[C@H](C)CC2)[C@H]2CC[C@H](Sc3nnc4ccccn34)CC2)c(C(=O)O)s1` [Compound 92, 3-(N-(4-([1,2,4]-Triazolo[4,3-a]pyridin-3-ylthio)cyclohexyl)-4-methylcyclohexanecarboxamido)-5-(3,3-dimethylbut-1-ynyl)thiophene-2-carboxylic acid] had an inhibition at 2 µM of 100%. For the compound `CC1CCC(C(=O)N(CCOc2cccnc2)c2cc(C#CC(C)(C)C)sc2C(=O)O)CC1` (centres unmarked) [Compound 138], the inhibition at 2 µM worked out at 99.7%. Same read-out and setting: the same measure for `CC1CCC(C(=O)N(c2cc(C#CC(C)(C)C)sc2C(=O)O)[C@H]2CC[C@H](Oc3cc(CN4CCCC4=O)ccn3)CC2)CC1` (some centres unmarked) [Compound 189, 3-[[-4-(4-pyrrolidin-2-one-1-ylmethyl-pyridin-2-yloxy)-cyclohexyl]-(4-methyl-cyclohexanecarbonyl)-amino]-5-(3,3-Dimethyl-but-1-ynyl)-thiophene-2-carboxylic acid]: 99.9%; for `CC(C)(C)C#Cc1cc(N(C(=O)[C@H]2CC[C@H](C)CC2)[C@H]2CC[C@H](OC3CCN(C(=O)OC(C)(C)C)CC3)CC2)c(C(=O)O)s1` [Compound 222, 3-(N-(4-(1-(tert-butoxycarbonyl)piperidin-4-yloxy)cyclohexyl)-4-methylcyclohexanecarboxamido)-5-(3,3-dimethylbut-1-ynyl)thiophene-2-carboxylic acid]: 97.7%. On the same count and under the same terms, the same measure for `CC(C)(C)C#Cc1cc(N(C(=O)[C@H]2CC[C@H](C)CC2)[C@H]2CC[C@@H](Oc3cccnc3)CC2)c(C(=O)O)s1` [Compound 180, 5-(3,3-Dimethylbut-1-ynyl)-3-(4-methyl-N-(4-(pyridin-3-yloxy)cyclohexyl)cyclohexanecarboxamido)thiophene-2-carboxylic acid]: 99.6%; for `CC(C)(C)C#Cc1cc(N(C(=O)[C@H]2CC[C@H](C)CC2)[C@H]2CC[C@H](Oc3cccnc3)CC2)c(C(=O)O)s1` [Compound 5, 5-(3,3-Dimethyl-but-1-ynyl)-3-{(trans-4-methyl-cyclohexanecarbonyl)-[trans-4-(pyridin-3-yloxy)-cyclohexyl]-amino}-thiophene-2-carboxylic acid]: 99.8%; for `CC(C)(C)C#Cc1cc(N(C(=O)[C@H]2CC[C@H](C)CC2)[C@H]2CC[C@H](Sc3ncc[nH]3)CC2)c(C(=O)O)s1` [Compound 94, 3-(N-(4-(1H-Imidazol-2-ylthio)cyclohexyl)-4-methylcyclohexanecarboxamido)-5-(3,3-dimethylbut-1-ynyl)thiophene-2-carboxylic acid]: 99.9%.

`CC(C)(C)C#Cc1cc(N(C(=O)[C@H]2CC[C@H](C)CC2)[C@H]2CCN(S(=O)(=O)c3cccnc3)C2)c(C(=O)O)s1` [Compound 216, 5-(3,3-Dimethyl-but-1-ynyl)-3-{(4-methyl-cyclohexanecarbonyl)-[1-(pyridine-3-sulfonyl)-pyrrolidin-3-yl]-amino}-thiophene-2-carboxylic acid]: the inhibition at 2 µM came to 100%. In turn, `CN(C)Cc1ccnc(O[C@H]2CC[C@H](N(c3cc(C#CC4(C(F)(F)F)CCC4)sc3C(=O)O)C(=O)[C@H]3CC[C@H](C)CC3)CC2)c1` [Compound 338, 3-((1r,4R)—N-((1r,4R)-4-(4-((dimethylamino)methyl)pyridin-2-yloxy)cyclohexyl)-4-methylcyclohexanecarboxamido)-5-((1-(trifluoromethyl)cyclobutyl)ethynyl)thiophene-2-carboxylic acid] returned an inhibition at 2 µM of 99.9%. In turn, `CC(C)(C)C#Cc1cc(N(C(=O)[C@H]2CC[C@H](C)CC2)[C@H]2CC[C@H](Sc3cccc[n+]3[O-])CC2)c(C(=O)O)s1` [Compound 88] came in with an inhibition at 2 µM of 98.5%. As for `CC(C)(C)C#Cc1cc(N(C(=O)[C@H]2CC[C@H](C)CC2)[C@H]2CC[C@@H](Oc3cnc(Cl)cn3)CC2)c(C(=O)O)s1` [Compound 182, 3-(N-(4-(5-Chloropyrazin-2-yloxy)cyclohexyl)-4-methylcyclohexanecarboxamido)-5-(3,3-dimethylbut-1-ynyl)thiophene-2-carboxylic acid], the inhibition at 2 µM is 99%. Consider `CC(C)(C)C#Cc1cc(N(C(=O)[C@H]2CC[C@H](C)CC2)[C@H]2CC[C@H](Sc3ccccn3)CC2)c(C(=O)O)s1` [Compound 99, 5-(3,3-Dimethylbut-1-ynyl)-3-(4-methyl-N-(4-(pyridin-2-ylthio)cyclohexyl)cyclohexanecarboxamido)thiophene-2-carboxylic acid], for which 2 µM produced 97.7% inhibition. `Cn1cnnc1S[C@H]1CC[C@@H](N(c2cc(C#CC(C)(C)C)sc2C(=O)O)C(=O)[C@H]2CC[C@H](C)CC2)CC1` [Compound 85, 5-(3,3-dimethylbut-1-ynyl)-3-(4-methyl-N-(4-(4-methyl-4H-1,2,4-triazol-3-ylthio)cyclohexyl)cyclohexanecarboxamido)thiophene-2-carboxylic] gave an inhibition at 2 µM of 99.6%.

The assay is the same for the next values; noted with them: Huh-7 HCV replicon cells, 3 days incubation.
As to `CC1=CCC(C(=O)N(c2cc(C#CC(C)(C)C)sc2C(=O)O)[C@H]2CC[C@H](O[C@@H]3CCOC3)CC2)[C@@H](C)C1` (single isomer, unassigned) [Compound 308, 5-(3,3-Dimethyl-but-1-ynyl)-3-{(4,6S-dimethyl-cyclohex-3-enecarbonyl)-[4-(tetrahydro-furan-3R-yloxy)-trans-cyclohexyl]-amino}-thiophene-2-carboxylic acid], the “% inhibition at 2μM” value came to 99.99%.
